The record followed here is US8158621B2, “Methods of treating or preventing autoimmune diseases with 2,4-pyrimidinediamine compounds” (Rigel Pharmaceuticals, Inc., priority 2002, dated 2012).

Experiment [1] concerns Human Jurkat T-cells (clone N). Nature of the experiment: Jurkat T-cell activation (anti-TCR, CD69 upregulation). The experiment is classed as cell-based. A digest of the protocol: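 Readout is CD69 upregulation by flow cytometry (anti-CD69-APC, 20 min at 4 °C) after 20 h anti-TCR (C305, 500 ng/ml) stimulation at 37 °C.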
The test system of experiment [2] is Primary human B-cells. Nature of the experiment: Primary B-cell activation (α-IgM, CD69 upregulation). It counts as cell-based. Particulars: read-out: 1° B-Cell CD69 IC50. On the procedure:
Primary human B-cells were isolated from buffy coat, the white cell layer that forms between the red cells and the […] when anti-coagulated blood is centrifuged, or from fresh blood using CD19-Dynal® beads and a FACS. Buffy coat was obtained from the Stanford Medical School Blood Centre, prepared on the same day by the blood bank, stored and transported cold (with ice). The buffy coat (approx 35 mL) was placed in a 500 mL conical sterile centrifuge pot and cooled on ice, then diluted with cold PBS containing 0.2% BSA (Sigma: A7638) and sodium citrate (0.1%, Sigma: S-5570) (P—B—C) to a total volume of 200 mL and mixed gently. Fresh blood was collected from donors in 10 mL vacutainers containing heparin (1 vacutainer collects approximately 8.5 mL blood). The blood was cooled on ice, transferred into 50 mL falcon tubes (20 mL/tube) or a 500 mL conical sterile centrifuge pot, and diluted with an equal volume P—B—C.
25 mL diluted blood or buffy coat was layered onto 15 mL cold ficoll and placed back on ice. The ficoll layered blood was centrifuged (Beckman GS-6R) for 45 minutes at 2000 rpm, 4° C. to separate the Peripheral Blood Mononuclear Cells (PBMC) from the Red Blood Cells (RBC) and granulocytes. The top aqueous layer was then aspirated until 1 inch above the PBMC layer. The PBMCs were transferred from every 2 ficoll tubes into one clean 50 mL falcon tube (=approx 10 mL/tube). The transferred PBMCs were diluted 5× with icecold PBS with 0.2% BSA (P—B) and centrifuged for 20 min at 1400 rpm and 4° C. The supernatant (this may be cloudy) was then aspirated and the PBMCs resuspended into 25 mL P—B and the cells counted (using a 1:5 dilution) and kept on ice.
The cells were then positively selected using anti-CD 19 antibody coupled to magnetic beads (Dynal®) as per manufacturer's instructions. The approximate required amount of CD19-Dynal® beads (CD19-coated dyna beads M-450 (pabB), Dynal®) was calculated by estimating the number of B-cells as 5% of PBMCs counted and adding approximately10 beads per cell from the bead stock (4×10^8 beads/mL). The CD19-Dynal® beads were washed 2× in P—B in a 5 mL tube using the Dynal® magnet, then added into the suspended PBMCs. This mixture was then passed through the Dynal® magnet and washed several times to separate the bead-bound cells.
After separation, the beads and antibody were removed using Dynal® CD19-DETACHaBEAD® for 45 min at 30° C. Yield is typically 2×10^7 B-cells per buffy coat. B-cells were washed and resuspended as 1E6 cells/mL in RPMI1640+10% FBS+Penicillin/[…]+1 ng/mL IFNα8. Cells were rested overnight at 37° C. and 5% CO2.
The following day, cells were washed and resuspended in RPMI+2.5% FBS to 1×10^6 cells/mL. Cells were then aliquoted into a V-bottom 96-well plate (Corning) at 65 uL cells per well. By robot, 65 uL of a 2× compound was added to the cells with final concentration of DMSO at 0.2%, and incubated for 1 hr at 37° C. Cells were then stimulated with 20 uL 7.5× α-IgM from Jackson laboratories (final 5 ug/mL) for 24 hrs. At day 3, the cells were spun down and stained for CD69 and analyzed by FACS gated on the live cells (by light scatter).
Varied concentrations of compound were compared to solvent only to determine the inhibition of B-cell activation IC50 of each compound.

Experiment [3] is described as follows: Mouse Reverse Passive Arthus reaction (RPA reaction). It counts as in vivo, C57BL/6 mice. Particulars: oral, 200 mg/kg. A digest of the protocol:
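C57BL/6 mice dosed with compound before challenge, pretreatment time set by each compound's PK; rabbit anti-OVA IgG (50 μg/mouse) given intradermally, then ovalbumin 20 mg/kg i.v. with 1% Evans blue. Dorsal skin edema and hemorrhage read by dye extravasation at 4 h; purified polyclonal rabbit IgG as control.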

For experiment [4], the system named is differentiated human macrophages. Description: Macrophage activation, IgG stimulation: IL-6. It counts as cell-based. Particulars: stimulus (IgG or LPS) not given; read-out: Monocytes/Macrophage IL-6 IC50. The procedure:
CD 14+ monocytes were purified from PBMC (Allcells # PB002) using the Monocyte Isolation kit (Miltenyi biotec #130-045-501) as per the manufacturer's instructions. Purity was assessed by measuring the percentage of CD14+ cells by flow cytometry. Typically >90% purity is achieved. The purified CD14+ cells are then plated out (6×10^6 cells/150 cm TC dish in 15 mls media) in Macrophage-SFM (Gibco #12065-074) with 100 ng/ml of M-CSF (Pepro Tech #300-25) and allowed to differentiate for five days. At the end of that period, cell morphology and cell surface markers (CD14, HLA-DR, B7.1, B7.2, CD64, CD32, and CD16) reflected the presence of mature differentiated macrophage.
A negative control consisting of the F(ab′)2 fragment was also coated to assess background stimulation. Unbound antibody was washed away 2× with 200 ul PBS. 20 ul of 5× compound was added to each well, followed by the addition 15 k cells of differentiated macrophage in 80 uL that had been scraped off of the plates. The cells were incubated for 16 hr in a 37° C. incubator, and supernatants were collected for Luminex analysis for IL-6 and TNFα, essentially as described for the primary T-cells, above.
Varied concentrations of compound were compared to solvent only to determine the IC50 of each compound for each cytokine Representative IC50 s for 2,4-pyrimidinediamine compounds of the invention are shown in Table 11.

Experiment [5] shares this test system. Description: Macrophage activation, IgG stimulation: TNF. Particulars: stimulus (IgG or LPS) not given; read-out: Monocytes/Macrophage TNF IC50. It counts as cell-based. The procedure: Purity was assessed by measuring the percentage of CD14+ cells by flow cytometry.
A negative control consisting of the F(ab′)2 fragment was also coated to assess background stimulation. Unbound antibody was washed away 2× with 200 ul PBS. […] The cells were incubated for 16 hr in a 37° C. incubator, and supernatants were collected for Luminex analysis for IL-6 and TNFα, essentially as described for the primary T-cells, above.

Experiment [6] has as its system cultured human mast cells (CHMC). Description: CHMC low cell density IgE activation: tryptase assay. To be noted: low cell density; read-out: CHMC anti-IgE Tryptase. The experiment is classed as cell-based. The essentials: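 Supernatant tryptase activity, assayed with substrate for 30 min at room temperature, served as the degranulation measure. Mast cells (1000-1500 per well depending on donor) sat 1 hr at 37° C in MT before a 30 min anti-IgE challenge at 37° C.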

The target in experiment [7] is T1, Syk kinase (Homo sapiens, UniProt P43405).
T1 construct: purchased Upstate, Lake Placid NY
Description: Syk kinase biochemical fluorescence polarization assay. Particulars: isolated Syk kinase, fluorescence polarization, 4 uM ATP. (Polarisation of emitted light reports the rotation of a fluorescent probe.)

Experiment [8] relates to bone marrow derived mast cells (BMMC). Description: BMMC high cell density IgE activation: hexosaminidase. It counts as cell-based, mouse. Particulars: high cell density; read-out: BMMC anti-IgE Hexos. On the procedure: (§1) After sensitizing, cells are counted, pelleted (1000 rpm, 5-10 minutes), and resuspended at 1-3×10^6 cells/ml in MT buffer. Add 100 ul of cell suspension to each well and 100 ul of compound dilutions. The final vehicle concentration is 0.5% DMSO. Incubate at 37° C. (5% CO2) for 1 hour. After 1 hour of compound treatment, stimulate cells with 6× stimulus (60 ng/ml DNP-BSA). Mix wells with the cells and allow plates to incubate at 37° C. (5% CO2) for one hour. After 1 hour incubation, pellet cells (10 minutes, 1000 RPM) and collect 200 ul per well of the supernatant, being careful not to disturb pellet, and transfer to a clean tube or 96-well plate. Place the supernatant plate on ice. During the 4-5 hour step (see next) perform the hexosiminidase assay. Resuspend cell pellet in 240 ul WEI-conditioned media containing 0.5% DMSO and corresponding concentration of compound. Incubate BMMC cells for 4-5 hours at 37° C. (5% CO2). After incubation, pellet cells (1000 RPM, 10 minutes) and collect 225 ul per well and place in −80° C. until ready to perform ELISAS. ELISAS are performed on appropriately diluted samples (determined empirically for each donor cell population so that the sample measurement falls within the standard curve) following the supplier's instructions.
Add 50 uL of BMMC cell supernatant (see above) to the hexoseaminidase substrate, place at 37° C. for 30 minutes and read the plate at 5, 10, 15, and 30 minutes on a spectrophotometer.

Experiment [9] relates to cultured human mast cells (CHMC). Description: CHMC low cell density ionomycin activation: tryptase assay. It counts as cell-based. Particulars: low cell density; read-out: CHMC Ionomycin Tryptase.
The test system of experiment [10] is bone marrow derived mast cells (BMMC). Nature of the experiment: BMMC high cell density IgE activation: TNFalpha. Particulars: high cell density; read-out: BMMC anti-IgE TNF-alpha. It counts as cell-based, mouse. The procedure:
as §1

For experiment [11] the test system is unchanged. Description: BMMC high cell density IgE activation: IL-6. It counts as cell-based, mouse. Particulars: high cell density; read-out: BMMC anti-IgE IL-6. On the procedure: as §1

Values joined by “and” are separate entries in the source; they are usually repeats but may differ in a detail not shown here. Equal values may be shown once.

For the compound `CNC(=O)COc1cccc(Nc2ncc(F)c(Nc3ccc(OC)c(Cl)c3)n2)c1` [Compound R926891], the IC50 in experiment [1] amounted to 1.55 µM; in [2], 0.803 µM; in [4], 0.942 µM; in [5] it was 1.14 µM. Besides, the “inhibition of edema formation” value in [3] (60 minutes prior to challenge) was determined as 54.9%. Also, the “% inhibition to vehicle control Edema Size ± SEM” value is 44.8 ± 3.0% in experiment [3] (pretreatment time 0.5 hrs); 46.2 ± 4.1% and 54.9% in [3] (pretreatment time 1 hrs); 28.1 ± 10.6% in [3] (pretreatment time 1.5 hrs).

In the case of `Cc1cccc(C)c1Nc1ncc(F)c(Nc2ccc3c(c2)NC(=O)C(C)(C)O3)n1` [Compound R927069], the IC50 in [1] was 0.93 µM; in experiment [6] it was 0.076 µM; in experiment [7] it was 0.111 µM; in [4], 5.65 µM; in experiment [8], 1.35 µM; in [9], 13 µM. Besides, the IC50 in [10] turned out to be 0.93 µM; in [11], 1.09 µM; in experiment [5], 8.51 µM.

Take `COc1ccc(Nc2ncc(F)c(Nc3ccc4c(c3)NC(=O)[C@@H](C)O4)n2)cc1Cl` [Compound R909322]: the IC50 is 3.03 µM in [1]; 0.225 µM in experiment [6]; 0.141 µM in experiment [7]; 0.839 µM in experiment [4]; 0.24 µM in experiment [8]; above 10 µM in experiment [9]. In addition, the IC50 came out at 0.14 µM in [10], 0.1 µM in experiment [11] and 1.26 µM in experiment [5].

As for `Cn1ncc2ccc(Nc3ncc(F)c(Nc4ccc5c(c4)NC(=O)C(C)(C)O5)n3)cc21` [Compound R940366], the IC50 in experiment [1] came to 0.086 µM; in [6] it was 0.037 µM; in experiment [7], 0.003 µM; in experiment [4] it was 0.097 µM; in [8] it was 0.03 µM; in experiment [9] it was 40 µM. For the same compound, the IC50 in experiment [10] was determined as 0.005 µM; in [11], 0.01 µM; in experiment [5], 0.086 µM.

For the compound `COc1ccc(Nc2nc(Nc3ccc4cc[nH]c4c3)ncc2F)cc1Cl` [Compound R926976], the IC50 came to 0.305 µM in experiment [6]; 0.421 µM in experiment [7]; 7.62 µM in experiment [4]; 0.59 µM in experiment [8]; 8.3 µM in experiment [9]; 0.11 µM in [10]. Moreover, the IC50 in experiment [11] came to 0.25 µM; in experiment [5] it was 4.37 µM.
